Values joined by “and” are separate entries in the source; they are usually repeats but may differ in a detail not shown here. Equal values may be shown once.
System: KRAS patient-derived spheroids with HUVEC/MSC, viability
Assay: Anticancer human tumor 519858-162-T-J1-PDC patient-derived colon adenocarcinoma cell line growth inhibition [KRAS2]
Conditions: for viability, T/C: stronger effect = lower value
Description: Multicellular complex tumor spheroid response to RAS pathway inhibitors in combination with a targeted agents in patient-derived cell lines with oncogenic KRAS variants from multiple cancer types
A high-throughput screen of multi-cell type tumor spheroids was designed to identify active combinations of targeted small molecules and KRAS pathway inhibitors. Complex spheroids include a stromal component modeled by human endothelial cells (HUVEC) and fibroblasts modeled by human mesenchymal stem cells (MSCs). The concentration ranges selected for each drug and investigational agent were based upon clinically achievable concentrations if the clinical Cmax of the agent was known.
Compounds. The drugs and investigational agents: BI-3406 (NSC825286), BAY-293 (NSC824723), batoprotafib (TNO155; NSC825523), sotorasib (AMG 510; NSC818433), MRTX1257 (NSC819558), elimusertib (BAY 1895344; NSC800525), molibresib (GSK525762; NSC774829), temuterkib (LY3214996; NSC803410), venetoclax (NSC766270), alisertib (NSC759677), olaparib (NSC753686), talazoparib (NSC767125), erdafitinib (NSC781556), ipatasertib (NSC767898), cabozantinib (NSC761068), nintedanib (NSC756659), abemaciclib (NSC768073), docetaxel (NSC628503), trametinib (NSC758246), and sapanisertib (NSC764658) were obtained from the National Cancer Institute (NCI) Developmental Therapeutics Program Chemical Repository. The FDA-approved anticancer drug set is available from the Developmental Therapeutics Program. […] The stock solutions were prepared in dimethyl sulfoxide (DMSO, Sigma-Aldrich, St. Louis, MO, cat. D2650) at 800-fold the tested concentration and stored at -70 degrees C prior to their use. All drugs and investigational agents were tested over a range starting from a high concentration at or near the clinical Cmax and decreasing in half-log increments. If the clinical Cmax for an agent had not been determined, the highest concentration tested was 10 microM.
Cell Culture. All cells were maintained in an incubator at 37 degrees C and 5% CO2 with 95% humidity. The PDC lines were cultured according to standard operating procedures established by the NCI PDMR (https://pdmr.cancer.gov/sops/default.htm). Briefly, all PDCs were thawed and cultured in Matrigel-coated flasks prepared with a working solution of 1X Ham's F-12 nutrient mix, without supplementation (Invitrogen, Waltham, MA, cat. 11765054), 100 U/mL penicillin-streptomycin (Invitrogen, cat. 15140122), and 2.5% Matrigel (Corning Inc., Corning, NY, cat. 354248) for the first three passages. All PDCs were cultured in complete DMEM/F-12 media containing advanced DMEM/F-12 (Invitrogen, cat. 12634028), 4.9% defined fetal bovine serum, heat inactivated (HyClone Laboratories Inc., Logan, UT, cat. SH30070.03HI), 389 ng/mL hydrocortisone (Sigma-Aldrich, cat. H4001), 9.7 ng/mL human EGF recombinant protein (Invitrogen, cat. PHG0313), 23.4 microg/mL adenine (Sigma-Aldrich, cat. A2786), 97.3 U/mL penicillin-streptomycin (Invitrogen, cat. 15140122), 1.9 mM L-glutamine (Invitrogen, cat. 25030081), and 9.7 microM Y-27632 dihydrochloride (Tocris Bioscience, Bristol, United Kingdom, cat. 1254). The PDCs were cultured in complete DMEM/F12 media without 9.7 microM Y-27632 dihydrochloride for at least two passages prior to the screen. The established cell line HOP-62 was cultured in RPMI 1640 medium, HEPES (Invitrogen, cat. 22400105) with 10% defined fetal bovine serum (HyClone Laboratories Inc., cat. SH30070.03) and 2 mM L-glutamine (Invitrogen, cat. 25030081). The pooled donor HUVEC were cultured in endothelial cell growth medium 2 (PromoCell, Heidelberg, Germany, cat. C-22011) and the hMSC were cultured in mesenchymal stem cell growth medium 2 (PromoCell, cat. C-28009). For all experiments, HUVEC and hMSC were used at passages </=5, while the malignant cell lines were used at passages </=15. […]

[1] = curve of first compound, second compound 0.0316 µM
[2] = curve of first compound, second compound 0.1 µM
[3] = curve of first compound, second compound 0.316 µM
[4] = curve of first compound, second compound 1 µM
[5] = curve of first compound, second compound 3.16 µM
[6] = second compound 0.0316 µM, first compound 0.0316 µM
[7] = second compound 0.0316 µM, first compound 0.1 µM
[8] = second compound 0.0316 µM, first compound 0.316 µM
[9] = second compound 0.0316 µM, first compound 1 µM
[10] = second compound 0.0316 µM, first compound 3.16 µM
[11] = second compound 0.0316 µM, first compound 10 µM
[12] = second compound 0.1 µM, first compound 0.0316 µM
[13] = second compound 0.1 µM, first compound 0.1 µM
[14] = second compound 0.1 µM, first compound 0.316 µM
[15] = second compound 0.1 µM, first compound 1 µM
[16] = second compound 0.1 µM, first compound 3.16 µM
[17] = second compound 0.1 µM, first compound 10 µM
[18] = second compound 0.316 µM, first compound 0.0316 µM
[19] = second compound 0.316 µM, first compound 0.1 µM
[20] = second compound 0.316 µM, first compound 0.316 µM
[21] = second compound 0.316 µM, first compound 1 µM
[22] = second compound 0.316 µM, first compound 3.16 µM
[23] = second compound 0.316 µM, first compound 10 µM
[24] = second compound 1 µM, first compound 0.0316 µM
[25] = second compound 1 µM, first compound 0.1 µM
[26] = second compound 1 µM, first compound 0.316 µM
[27] = second compound 1 µM, first compound 1 µM
[28] = second compound 1 µM, first compound 3.16 µM
[29] = second compound 1 µM, first compound 10 µM
[30] = second compound 3.16 µM, first compound 0.0316 µM
[31] = second compound 3.16 µM, first compound 0.1 µM
[32] = second compound 3.16 µM, first compound 0.316 µM
[33] = second compound 3.16 µM, first compound 1 µM
[34] = second compound 3.16 µM, first compound 3.16 µM
[35] = second compound 3.16 µM, first compound 10 µM
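Also: compound exposure lasted seven days before readout.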
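For viability, T/C in this document: 100% = DMSO vehicle control viability.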

Compound | IC50 [1] [nM] | IC50 [2] [nM] | IC50 [3] [nM] | IC50 [4] [nM] | IC50 [5] [nM] | viability, T/C [6] [%] | viability, T/C [7] [%] | viability, T/C [8] [%] | viability, T/C [9] [%] | viability, T/C [10] [%] | viability, T/C [11] [%] | viability, T/C [12] [%] | viability, T/C [13] [%] | viability, T/C [14] [%] | viability, T/C [15] [%] | viability, T/C [16] [%] | viability, T/C [17] [%] | viability, T/C [18] [%] | viability, T/C [19] [%] | viability, T/C [20] [%] | also measured
CCNC(=O)CC1N=C(c2ccc(Cl)cc2)c2cc(OC)ccc2-n2c(C)nnc21 (stereo not drawn) + C=CC(=O)N1CCN(c2nc(OCC3CCCN3C)nc3c2CCN(c2cccc4cccc(C)c24)C3)CC1CC#N | 1530 | 1730 | 1330 | 1440 | 200 | 90.5 | 76.3 | 92.1 | 57.6 | 42.6 | 31.6 | 85.5 | 93.8 | 79.7 | 59.2 | 40.4 | 27.2 | 101 | 88.3 | 66.4 | viability, T/C [21]: 54.1%; viability, T/C [22]: 40.4%; viability, T/C [23]: 22.9%; viability, T/C [24]: 89.3%; viability, T/C [25]: 74.6%; viability, T/C [26]: 70.4%; viability, T/C [27]: 58.2%; viability, T/C [28]: 35.8%; viability, T/C [29]: 20.6%; viability, T/C [30]: 69.9%; viability, T/C [31]: 55.2%; viability, T/C [32]: 46.9%; viability, T/C [33]: 33.2%; viability, T/C [34]: 29.6%; viability, T/C [35]: 18.4%
O=C(c1cc(Cc2n[nH]c(=O)c3ccccc23)ccc1F)N1CCN(C(=O)C2CC2)CC1 + C=CC(=O)N1CCN(c2nc(OCC3CCCN3C)nc3c2CCN(c2cccc4cccc(C)c24)C3)CC1CC#N | > 10000 | > 10000 | > 10000 | > 10000 | > 10000 | 82.5 | 90.2 | 80.3 | 86.8 | 71.2 | 93.3 | 72.9 | 115 | 102 | 101 | 102 | 101 | 70.3 | 94.5 | 83.7 | viability, T/C [21]: 84.5%; viability, T/C [22]: 85.4%; viability, T/C [23]: 98.7%; viability, T/C [24]: 91.2%; viability, T/C [25]: 71.3%; viability, T/C [26]: 112%; viability, T/C [27]: 97.5%; viability, T/C [28]: 86.9%; viability, T/C [29]: 96.9%; viability, T/C [30]: 79.2%; viability, T/C [31]: 69.4%; viability, T/C [32]: 60.8%; viability, T/C [33]: 85.6%; viability, T/C [34]: 98%; viability, T/C [35]: 80.2%
C=CC(=O)N1CCN(c2nc(OCC3CCCN3C)nc3c2CCN(c2cccc4cccc(C)c24)C3)CC1CC#N (stereo not drawn) |  |  |  |  |  |  |  |  |  |  |  |  |  |  |  |  |  |  |  |  | IC50 (compound alone, run of 07/12/2021): > 3160 nM; IC50 (compound alone, run of 07/19/2021): > 3160 nM; IC50 (compound alone, run of 07/26/2021): > 3160 nM and 2200 nM
